How the values were obtained:
[1] = biological target: T1, human recombinant HDAC1 (Homo sapiens, UniProt Q13547); experiment: HDAC1 enzyme activity inhibition (HDAC Fluorimetric Drug Discovery Kit); type: biochemical; settings: human recombinant HDAC1; IC50 calculated with GraphPad Prism; read-out: HDAC1
T1 construct: purchased Enzo Life Science, Inc. BML-SE456
How it was run: (§1)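 Each isoform is run in the same format: compound dilutions (5-fold steps), 10 μM substrate, […] enzyme, one hour at 30° C, then 30 minutes with developer before fluorescence readout.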

[2] = biological target: T2, human recombinant HDAC6 (Homo sapiens, UniProt Q9UBN7); experiment: HDAC6 enzyme activity inhibition (HDAC Fluorimetric Drug Discovery Kit); type: biochemical; settings: for HDAC6 selectivity (fold): HDAC1 IC50 / HDAC6 IC50; for IC50: human recombinant HDAC6, IC50 calculated with GraphPad Prism
T2 construct: purchased Calbiochem Inc. 382180
T2 sequence (Q9UBN7 1-1215): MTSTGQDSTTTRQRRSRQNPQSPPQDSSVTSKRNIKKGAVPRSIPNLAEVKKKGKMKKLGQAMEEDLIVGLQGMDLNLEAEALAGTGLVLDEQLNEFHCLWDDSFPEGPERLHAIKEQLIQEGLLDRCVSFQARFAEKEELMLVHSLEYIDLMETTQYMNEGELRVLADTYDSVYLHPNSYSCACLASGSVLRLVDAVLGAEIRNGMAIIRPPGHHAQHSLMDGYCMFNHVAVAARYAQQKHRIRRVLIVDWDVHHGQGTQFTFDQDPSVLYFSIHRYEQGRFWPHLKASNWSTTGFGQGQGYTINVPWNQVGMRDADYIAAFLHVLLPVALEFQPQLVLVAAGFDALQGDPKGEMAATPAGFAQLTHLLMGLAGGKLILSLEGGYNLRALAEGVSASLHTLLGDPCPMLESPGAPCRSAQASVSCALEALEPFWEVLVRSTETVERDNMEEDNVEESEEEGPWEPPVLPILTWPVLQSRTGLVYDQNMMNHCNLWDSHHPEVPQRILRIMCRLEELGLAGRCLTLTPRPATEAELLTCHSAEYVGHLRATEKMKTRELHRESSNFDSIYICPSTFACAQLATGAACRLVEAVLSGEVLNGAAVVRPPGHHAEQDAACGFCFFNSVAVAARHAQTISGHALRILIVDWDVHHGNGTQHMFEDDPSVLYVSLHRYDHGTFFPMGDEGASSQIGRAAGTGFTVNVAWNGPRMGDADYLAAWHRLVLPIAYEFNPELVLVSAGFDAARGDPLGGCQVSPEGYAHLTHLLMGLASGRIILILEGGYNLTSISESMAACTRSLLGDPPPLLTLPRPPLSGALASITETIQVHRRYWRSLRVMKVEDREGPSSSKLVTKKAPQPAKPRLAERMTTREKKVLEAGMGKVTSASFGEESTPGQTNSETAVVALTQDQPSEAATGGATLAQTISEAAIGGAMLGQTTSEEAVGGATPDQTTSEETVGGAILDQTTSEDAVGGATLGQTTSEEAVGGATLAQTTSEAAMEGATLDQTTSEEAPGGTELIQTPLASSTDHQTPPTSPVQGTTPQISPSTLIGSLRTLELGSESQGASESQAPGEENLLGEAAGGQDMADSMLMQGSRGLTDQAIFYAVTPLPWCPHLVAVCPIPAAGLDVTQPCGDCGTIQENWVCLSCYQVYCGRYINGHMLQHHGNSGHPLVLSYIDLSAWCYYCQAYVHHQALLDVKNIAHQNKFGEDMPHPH
How it was run: as §1

T1 sequence (Q13547 whole entry): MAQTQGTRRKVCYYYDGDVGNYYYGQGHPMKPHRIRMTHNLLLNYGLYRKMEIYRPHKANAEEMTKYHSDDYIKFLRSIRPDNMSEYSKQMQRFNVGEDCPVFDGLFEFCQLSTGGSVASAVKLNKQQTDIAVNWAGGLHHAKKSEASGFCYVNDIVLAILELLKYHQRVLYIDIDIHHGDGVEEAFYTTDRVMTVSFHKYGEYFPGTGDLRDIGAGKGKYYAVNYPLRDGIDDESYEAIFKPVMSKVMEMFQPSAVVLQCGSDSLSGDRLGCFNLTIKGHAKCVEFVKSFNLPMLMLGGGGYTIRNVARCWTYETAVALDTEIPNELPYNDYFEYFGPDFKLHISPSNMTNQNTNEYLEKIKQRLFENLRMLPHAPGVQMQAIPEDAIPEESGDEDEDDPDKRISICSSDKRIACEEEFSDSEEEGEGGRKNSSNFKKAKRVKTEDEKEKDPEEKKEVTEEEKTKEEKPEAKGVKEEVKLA

SMILES	IC50 [1]	HDAC6 selectivity (fold) [2]	IC50 [2]
CC(C)(C)OC(=O)N1CCC(Cc2cn(Cc3ccc(-c4nnc(C(F)F)o4)cn3)nn2)CC1 [Compound 4000, Tert-butyl 4-((1-((5-(5-(difluoromethyl)-1,3,4-oxadiazol-2-yl)pyridin-2-yl)methyl)-1H-1,2,3-triazol-4-yl)methyl)piperidin-1-carboxylate]	> 50000 nM	145 fold	343 nM
CC(C)(C)OC(=O)N1CCC(c2cccc(-c3cn(Cc4ccc(-c5nnc(C(F)F)o5)cn4)nn3)c2)CC1 [Compound 4001, tert-butyl 4-(3-(1-((5-(5-(difluoromethyl)-1,3,4-oxadiazol-2-yl)pyridin-2-yl)methyl)-1H-1,2,3-triazol-4-yl)phenyl)piperidin-1-carboxylate]	> 50000 nM	296 fold	169 nM
CCN1CCCC(c2cn(Cc3ccc(-c4nnc(C(F)F)o4)cn3)nn2)C1 (stereo not drawn) [Compound 4002, 2-(difluoromethyl)-5-(6-((4-(1-ethylpiperidin-3-yl)-1H-1,2,3-triazol-1-yl)methyl)pyridin-3-yl)-1,3,4-oxadiazole]	> 50000 nM	96 fold	520 nM
FC(F)c1nnc(-c2ccc(Cn3cc(C4CCCN(C5COC5)C4)nn3)nc2)o1 (stereo not drawn) [Compound 4003]	> 50000 nM	103 fold	484 nM
CC(=O)N1CCCC(c2cn(Cc3ccc(-c4nnc(C(F)F)o4)cn3)nn2)C1 (stereo not drawn) [Compound 4004, 1-(3-(1-((5-(5-(difluoromethyl)-1,3,4-oxadiazol-2-yl)pyridin-2-yl)methyl)-1H-1,2,3-triazol-4-yl)piperidin-1-yl)ethan-1-one]	> 50000 nM	150 fold	332 nM
CN1CCC(F)(c2cn(Cc3ccc(-c4nnc(C(F)F)o4)cn3)nn2)CC1 [Compound 4005, 2-(difluoromethyl)-5-(6-((4-(4-fluoro-1-methylpiperidin-4-yl)-1H-1,2,3-triazol-1-yl)methyl)pyridin-3-yl)-1,3,4-oxadiazole]	> 50000 nM	379 fold	132 nM
CCN1CCC(F)(c2cn(Cc3ccc(-c4nnc(C(F)F)o4)cn3)nn2)CC1 [Compound 4006, 2-(difluoromethyl)-5-(6-((4-(1-ethyl-4-fluoropiperidin-4-yl)-1H-1,2,3-triazol-1-yl)methyl)pyridin-3-yl)-1,3,4-oxadiazole]	> 50000 nM	375 fold	133 nM
CC(C)N1CCC(F)(c2cn(Cc3ccc(-c4nnc(C(F)F)o4)cn3)nn2)CC1 [Compound 4007, 2-(difluoromethyl)-5-(6-((4-(4-fluoro-1-isopropylpiperidin-4-yl)-1H-1,2,3-triazol-1-yl)methyl)pyridin-3-yl)-1,3,4-oxadiazole]	> 50000 nM	2873 fold	17.4 nM
FC(F)c1nnc(-c2ccc(Cn3cc(C4(F)CCN(C5COC5)CC4)nn3)nc2)o1 [Compound 4008, 2-(difluoromethyl)-5-(6-((4-(4-fluoro-1-(oxetan-3-yl)piperidin-4-yl)-1H-1,2,3-triazol-1-yl)methyl)pyridin-3-yl)-1,3,4-oxadiazole]	> 50000 nM	408 fold	122 nM
CC(=O)N1CCC(F)(c2cn(Cc3ccc(-c4nnc(C(F)F)o4)cn3)nn2)CC1 [Compound 4009, 1-(4-(1-((5-(5-(difluoromethyl)-1,3,4-oxadiazol-2-yl)pyridin-2-yl)methyl)-1H-1,2,3-triazol-4-yl)-4-fluoropiperidin-1-yl)ethan-1-one]	> 50000 nM	405 fold	123 nM
CN1CCC(Cc2cn(Cc3ccc(-c4nnc(C(F)F)o4)cn3)nn2)CC1 [Compound 4014, 2-(difluoromethyl)-5-(6-((4-((1-methylpiperidin-4-yl)methyl)-1H-1,2,3-triazol-1-yl)methyl)pyridin-3-yl)-1,3,4-oxadiazole]	> 50000 nM	246 fold	203 nM
CC(=O)N1CCC(Cc2cn(Cc3ccc(-c4nnc(C(F)F)o4)cn3)nn2)CC1 [Compound 4015, 1-(4-((1-((5-(5-(difluoromethyl)-1,3,4-oxadiazol-2-yl)pyridin-2-yl)methyl)-1H-1,2,3-triazol-4-yl)methyl)piperidin-1-yl)ethan-1-one]	> 50000 nM	106 fold	471 nM
FC(F)c1nnc(-c2ccc(Cn3cc(-c4cccc5[nH]cc(CN6CCOCC6)c45)nn3)nc2)o1 [Compound 4023, 4-((4-(1-((5-(5-(difluoromethyl)-1,3,4-oxadiazol-2-yl)pyridin-2-yl)methyl)-1H-1,2,3-triazol-4-yl)-1H-indol-3-yl)methyl)morpholine]	> 50000 nM	32 fold	1560 nM
FC(F)c1nnc(-c2ccc(Cn3cc([C@@H]4CCCN4C4COC4)nn3)nc2)o1 [Compound 4026, (S)-2-(difluoromethyl)-5-(6-((4-(1-(oxetan-3-yl)pyrrolidin-2-yl)-1H-1,2,3-triazol-1-yl)methyl)pyridin-3-yl)-1,3,4-oxadiazole]	> 50000 nM	189 fold	263 nM
FC(F)c1nnc(-c2ccc(Cn3cc([C@@H]4CCCN4C4CC5(COC5)C4)nn3)nc2)o1 [Compound 4027, (S)-2-(6-((4-(1-(2-oxaspiro[3.3]heptan-6-yl)pyrrolidin-2-yl)-1H-1,2,3-triazol-1-yl)methyl)pyridin-3-yl)-5-(difluoromethyl)-1,3,4-oxadiazole]	> 50000 nM	10 fold	5000 nM
COC(=O)N1CCC[C@H]1c1cn(Cc2ccc(-c3nnc(C(F)F)o3)cn2)nn1 [Compound 4028, methyl (S)-2-(1-((5-(5-(difluoromethyl)-1,3,4-oxadiazol-2-yl)pyridin-2-yl)methyl)-1H-1,2,3-triazol-4-yl)pyrrolidin-1-carboxylate]	> 50000 nM	238 fold	210 nM
CC(=O)N1CCC[C@H]1c1cn(Cc2ccc(-c3nnc(C(F)F)o3)cn2)nn1 [Compound 4029, (S)-1-(2-(1-((5-(5-(difluoromethyl)-1,3,4-oxadiazol-2-yl)pyridin-2-yl)methyl)-1H-1,2,3-triazol-4-yl)pyrrolidin-1-yl)ethan-1-one]	> 50000 nM	239 fold	208 nM
CN1CCc2cc(-c3cn(Cc4ccc(-c5nnc(C(F)F)o5)cn4)nn3)ccc2C1 [Compound 4051, 2-(difluoromethyl)-5-(6-((4-(2-methyl-1,2,3,4-tetrahydroisoquinolin-6-yl)-1H-1,2,3-triazol-1-yl)methyl)pyridin-3-yl)-1,3,4-oxadiazole]	> 50000 nM	1623 fold	30.8 nM
CC(C)N1CCc2cc(-c3cn(Cc4ccc(-c5nnc(C(F)F)o5)cn4)nn3)ccc2C1 [Compound 4053, 2-(difluoromethyl)-5-(6-((4-(2-isopropyl-1,2,3,4-tetrahydroisoquinolin-6-yl)-1H-1,2,3-triazol-1-yl)methyl)pyridin-3-yl)-1,3,4-oxadiazole]	> 50000 nM	880 fold	56.8 nM
